Experimental data as given in patent US20190152992A1, “BENZODIOXANE DERIVATIVES AND THEIR PHARMACEUTICAL USE” (Orion Corporation, priority 2016, published 2019).
pIC50: −log10 of the molar value. Read-outs that look alike come from different tables or passages of the source.

Assays:
[1] = molecular target: T1, human alpha2A receptors (Homo sapiens, UniProt P08913); conditions: for pIC50: read-out: Alpha 2A Adrenaline IC50, antagonism, cells stimulated with adrenaline, CHO cells stably transfected with human alpha2A, cotransfected with Gα16, intracellular calcium; for Kb: read-out: Alpha 2A Adrenaline Kb, Kb calculated from IC50 with the Cheng-Prusoff equation, adrenaline as agonist, CHO cells, human alpha2A
T1 sequence (P08913 1-465): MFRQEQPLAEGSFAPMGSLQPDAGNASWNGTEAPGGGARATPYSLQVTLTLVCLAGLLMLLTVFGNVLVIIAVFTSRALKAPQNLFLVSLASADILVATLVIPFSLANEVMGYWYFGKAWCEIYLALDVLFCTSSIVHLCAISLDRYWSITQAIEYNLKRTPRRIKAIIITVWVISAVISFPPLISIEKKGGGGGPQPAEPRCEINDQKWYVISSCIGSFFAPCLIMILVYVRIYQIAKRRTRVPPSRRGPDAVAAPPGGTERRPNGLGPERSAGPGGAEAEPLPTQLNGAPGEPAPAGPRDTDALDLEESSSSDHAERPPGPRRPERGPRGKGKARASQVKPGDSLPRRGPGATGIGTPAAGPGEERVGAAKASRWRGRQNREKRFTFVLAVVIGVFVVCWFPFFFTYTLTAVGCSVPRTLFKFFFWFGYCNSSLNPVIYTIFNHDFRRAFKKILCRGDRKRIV

[2] = molecular target: T2, human alpha2C receptors (Homo sapiens, UniProt P18825); assay: Determination of alpha2C antagonistic activity in vitro (FLIPR calcium assay); conditions: for Kb: Kb calculated from IC50 with the Cheng-Prusoff equation, adrenaline as agonist, CHO cells, human alpha2C
T2 sequence (P18825 1-462): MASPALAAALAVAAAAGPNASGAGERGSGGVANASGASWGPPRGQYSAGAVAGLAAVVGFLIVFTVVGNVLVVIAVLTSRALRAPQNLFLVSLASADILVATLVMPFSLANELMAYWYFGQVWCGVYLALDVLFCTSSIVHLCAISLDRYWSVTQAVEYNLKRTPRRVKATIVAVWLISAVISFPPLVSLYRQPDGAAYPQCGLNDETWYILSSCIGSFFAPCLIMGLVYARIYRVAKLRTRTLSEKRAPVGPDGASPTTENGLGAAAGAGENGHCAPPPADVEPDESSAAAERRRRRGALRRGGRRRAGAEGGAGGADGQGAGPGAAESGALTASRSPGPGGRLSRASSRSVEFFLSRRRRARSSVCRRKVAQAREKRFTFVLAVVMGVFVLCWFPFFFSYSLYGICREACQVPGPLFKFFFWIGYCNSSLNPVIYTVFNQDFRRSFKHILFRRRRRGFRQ

[3] = molecular target: T1, human alpha2A receptors; assay: cell-based
[4] = read-out: Alpha 2C Adrenaline IC50, antagonism, cells stimulated with adrenaline, CHO cells stably transfected with human alpha2C, cotransfected with Gα16, intracellular calcium
[5] = read-out: Alpha 2C Adrenaline Kb

Row | Compound | pIC50 [1] | Kb [1] [nM] | pIC50 [2] | Kb ([2]; Alpha 2C Adrenaline Kb) [nM] | pIC50 [3] | Kb [3] [nM] | pIC50 [2, 4] | Kb [2, 5] [nM]
1 | O=C1NCCCN1[C@H]1CCCN(C[C@H]2COc3ccccc3O2)C1 [compound 53, 1-((S)-1-(((S)-2,3-Dihydrobenzo[b][1,4]dioxin-2-yl)methyl)piperidin-3-yl)tetrahydropyrimidin-2(1H)-one] | < 5.00 | > 449 | – | – | – | – | 8.98 | 0.105
2 | Cc1nc2ncccc2n1[C@H]1CCCN(C[C@H]2COc3ccccc3O2)C1 [example 157, 1-((S)-1-(((S)-2,3-Dihydrobenzo[b][1,4]dioxin-2-yl)methyl)-piperidin-3-yl)-2-methyl-1H-imidazo[4,5-b]pyridine] | – | – | 8.79 | 0.164 | < 5.00 | > 449 | – | –
3 | Cc1nc2cnccc2n1[C@H]1CCCN(C[C@H]2COc3ccccc3O2)C1 [example 158, 1-((S)-1-(((S)-2,3-Dihydrobenzo[b][1,4]dioxin-2-yl)methyl)piperidin-3-yl)-2-methyl-1H-imidazo[4,5-c]pyridine] | – | – | 8.46 | 0.346 | < 5.00 | > 449 | – | –
4 | CC1(C)CCN([C@H]2CCCN(C[C@H]3COc4ccccc4O3)C2)S1(=O)=O [example 162, 2-((S)-1-(((S)-2,3-Dihydrobenzo[b][1,4]dioxin-2-yl)methyl)piperidin-3-yl)-5,5-dimethylisothiazolidine 1,1-dioxide] | – | – | 8.21 | 0.62 | < 5.00 | > 449 | – | –
5 | (R)-1-((S)-1-(((S)-2,3-Dihydrobenzo[b][1,4]dioxin-2-yl)methyl)piperidin-3-yl)-3-methyl-3-phenylpyrrolidine-2,5-dione and (S)-1-((S)-1-(((S)-2,3-dihydrobenzo[b][1,4]dioxin-2-yl)methyl)piperidin-3-yl)-3-methyl-3-phenylpyrrolidine-2,5-dione [example 36] | 5.81 | 70 | – | – | – | – | 9.04 | 0.091

Further lines, with some results ahead:

Row | pIC50 [1] | Kb [1] [nM] | pIC50 [2] | Kb ([2]; Alpha 2C Adrenaline Kb) [nM] | pIC50 [3] | Kb [3] [nM] | Compound | pIC50 [2, 4] | Kb [2, 5] [nM]
6 | < 5.00 | > 449 | 9.82 | 0.02 | – | – | CC1CCN([C@H]2CCCN(C[C@H]3COc4ccccc4O3)C2)C1=O (single isomer, unassigned; diastereomer 2) [example 99] | – | –
7 | – | – | 10.92 | 0.001 | 5.45 | 161 | Cc1nc2cccnc2n1[C@H]1CCCN(C[C@H]2COc3ccccc3O2)C1 [example 156, 3-((S)-1-(((S)-2,3-Dihydrobenzo[b][1,4]dioxin-2-yl)methyl)-piperidin-3-yl)-2-methyl-3H-imidazo[4,5-b]pyridine] | – | –
8 | – | – | 11.00 | 0.001 | < 5.00 | > 449 | CCc1nc2cccnc2n1[C@H]1CCCN(C[C@H]2COc3ccccc3O2)C1 [example 159, 3-((S)-1-(((S)-2,3-Dihydrobenzo[b][1,4]dioxin-2-yl)methyl)piperidin-3-yl)-2-ethyl-3H-imidazo[4,5-b]pyridine] | – | –
9 | – | – | 9.82 | 0.016 | < 5.00 | > 449 | Cc1nc2cncnc2n1[C@H]1CCCN(C[C@H]2COc3ccccc3O2)C1 [example 160, 9-((S)-1-(((S)-2,3-Dihydrobenzo[b][1,4]dioxin-2-yl)methyl)piperidin-3-yl)-8-methyl-9H-purine] | – | –
10 | – | – | 9.53 | 0.03 | < 5.00 | > 449 | c1ccc2c(c1)OC[C@H](CN1CCC[C@H](n3cnc4cncnc43)C1)O2 [example 161, 9-((S)-1-(((S)-2,3-Dihydrobenzo[b][1,4]dioxin-2-yl)methyl)-piperidin-3-yl)-9H-purine] | – | –
